One assay has as its system Rattus norvegicus. Kind of assay: In vivo angiotensin II like activity expressed in rat blood pressure assay measured as increase in BP by 1 ug bolus intravenous injection of compound. In kind it is functional.
For a further assay, the species on record is Oryctolagus cuniculus. Kind of assay: pA2 value was evaluated in rabbit aorta assay. It is filed as functional.

Square brackets hold non-standard residues; d marks the D form. Peptide text beside a SMILES is read from it. Sar = CNCC(=O)O

Broadly, the pA2 is the negative logarithm of the molar antagonist concentration that doubles the agonist concentration needed for the same response. High values mean higher antagonist potency, low ones lower antagonist potency. `CC[C@H](C)[C@H](NC(=O)[C@@H]1CCCN1C(=O)[C@H](Cc1c[nH]cn1)NC(=O)[C@@H](NC(=O)[C@H](Cc1ccc(O)cc1)NC(=O)[C@@H](NC(=O)[C@H](CCCN=C(N)N)NC(=O)CNC)C(C)C)[C@@H](C)OC)C(=O)O` (H-[Sar]RVYT(Me)HPI-OH) displayed a BP with Rattus norvegicus of 7.5 mmHg. In the assay listed under Oryctolagus cuniculus, this compound had a pA2 of 9.7.

These data come from ChEMBL document CHEMBL1124402, “Potent angiotensin II antagonists with non-beta-branched amino acids in position 5” (1989).
